Source: ChEMBL document CHEMBL1782039, “Discovery of ((1S,3R)-1-isopropyl-3-((3S,4S)-3-methoxy-tetrahydro-2H-pyran-4-ylamino)cyclopentyl)(4-(5-(trifluoromethyl)pyridazin-3-yl)piperazin-1-yl)methanone, PF-4254196, a CCR2 antagonist with an improved cardiovascular profile” (Bioorg Med Chem Lett, 2011)

Key:
[1] = Intrinsic clearance in human liver microsomes; type: ADME, Microsome
[2] = Half life in rat; type: ADME, organism-based; conditions: in vivo
[3] = Blood clearance in rat; type: ADME, organism-based; conditions: whole blood
[4] = in vivo; conditions: rat, brain and plasma
[5] = Lipophilicity, log D of the compound at pH 7.4; type: physicochemical; conditions: buffer
[6] = Bioavailability in rat at 1 mg/kg, po and iv; type: ADME, organism-based; conditions: in vivo

| microsomal CLint [1] | logD [5] | Structure (SMILES) | also measured |
| --- | --- | --- | --- |
| 58 µL/min/mg | – | CC(C)[C@]1(C(=O)N2CCN(c3cc(C(F)(F)F)cnn3)CC2)CC[C@@H](NC2C3CCCC2COC3)C1 (stereo in doubt; 27) | – |
| 58 µL/min/mg | – | CO[C@@H]1COCC[C@@H]1N(C)[C@@H]1CC[C@@](C(=O)N2CCN(c3cc(C(F)(F)F)ccn3)CC2)(C(C)C)C1 | – |
| < 7 µL/min/mg | – | CC(C)[C@]1(C(=O)N2CCN(c3cc(C(F)(F)F)ccn3)CC2)CC[C@@H](N2CCC3COCCC32)C1 (stereo in doubt; 22) | – |
| < 7 µL/min/mg | 0.7 | CO[C@@H]1COCC[C@@H]1N[C@@H]1CC[C@@](C(=O)N2CCN(c3ccnc(C(F)(F)F)c3)CC2)(C(C)C)C1 | – |
| < 7 µL/min/mg | 0.5 | CO[C@@H]1COCC[C@@H]1N[C@@H]1CC[C@@](C(=O)N2CCN(c3cc(C(F)(F)F)cnn3)CC2)(C(C)C)C1 | bioavailability [6]: 50% |

| Structure (SMILES) | microsomal CLint [1] | logD [5] | also measured |
| --- | --- | --- | --- |
| CO[C@@H]1COCC[C@@H]1N[C@@H]1CC[C@@](C(=O)N2CCN(c3cc(C(F)(F)F)ccn3)CC2)(C(C)C)C1 | 9.3 µL/min/mg | – | half-life [2]: 3.9 h; clearance [3]: 33.8 mL/min/kg; Kp [4]: 3 |
